Measured values as given in ChEMBL document CHEMBL3044540, “Synthesis and Fungicidal Activity of New 6-Alkyl-2-alkylamino-4H-1, 3, 2-benzodioxaphosphorin 2-Sulfides” (1998).

Assays:
Assay type in all cases: functional
[1] = tested on: Athelia rolfsii; assay: Antifungal activity against Athelia rolfsii assessed as growth inhibition at 100 ppm by agar dilutopn method; details: Agroathelia rolfsii; read-out: GI
[2] = tested on: Athelia rolfsii; assay: Antifungal activity against Athelia rolfsii assessed as growth inhibition at 10 ppm by agar dilutopn method; details: Agroathelia rolfsii; read-out: GI
[3] = tested on: Pythium; assay: Antifungal activity against Pythium sp. assessed as growth inhibition at 10 ppm by agar dilution method; details: read-out: GI
[4] = tested on: Pythium; assay: Antifungal activity against Pythium sp. assessed as growth inhibition at 100 ppm by agar dilution method; details: read-out: GI

CCCCNP1(=S)OCc2cc(CCCC)ccc2O1 (centres undefined)
inhibition of growth at 100 ppm [1]: 70% | inhibition of growth at 10 ppm [2]: 44% | inhibition of growth at 10 ppm [3]: 5% | inhibition of growth at 100 ppm [4]: 33%

CCCCc1ccc2c(c1)COP(=S)(NCC(C)C)O2 (centres undefined)
inhibition of growth at 100 ppm [1]: 48% | inhibition of growth at 10 ppm [2]: 22% | inhibition of growth at 10 ppm [3]: 8% | inhibition of growth at 100 ppm [4]: 28%

CCCCc1ccc2c(c1)COP(=S)(NC(C)CC)O2 (centres undefined)
inhibition of growth at 100 ppm [1]: 47% | inhibition of growth at 10 ppm [2]: 24% | inhibition of growth at 10 ppm [3]: 33% | inhibition of growth at 100 ppm [4]: 38%

CCCNP1(=S)OCc2cc(C(C)CC)ccc2O1 (centres undefined)
inhibition of growth at 100 ppm [1]: 77% | inhibition of growth at 10 ppm [2]: 48% | inhibition of growth at 10 ppm [3]: 14% | inhibition of growth at 100 ppm [4]: 48%

CCC(C)c1ccc2c(c1)COP(=S)(NC(C)C)O2 (centres undefined)
inhibition of growth at 100 ppm [1]: 75% | inhibition of growth at 10 ppm [2]: 28% | inhibition of growth at 10 ppm [3]: 0% | inhibition of growth at 100 ppm [4]: 48%

CCCCNP1(=S)OCc2cc(C(C)CC)ccc2O1 (centres undefined)
inhibition of growth at 100 ppm [1]: 63% | inhibition of growth at 10 ppm [2]: 39% | inhibition of growth at 10 ppm [3]: 4% | inhibition of growth at 100 ppm [4]: 11%

CCC(C)c1ccc2c(c1)COP(=S)(NCC(C)C)O2 (centres undefined)
inhibition of growth at 100 ppm [1]: 63% | inhibition of growth at 10 ppm [2]: 31% | inhibition of growth at 10 ppm [3]: 0% | inhibition of growth at 100 ppm [4]: 14%

CCC(C)NP1(=S)OCc2cc(C(C)CC)ccc2O1 (centres undefined)
inhibition of growth at 100 ppm [1]: 37% | inhibition of growth at 10 ppm [2]: 0% | inhibition of growth at 10 ppm [3]: 0% | inhibition of growth at 100 ppm [4]: 7%

CCCNP1(=S)OCc2cc(CCC)ccc2O1 (centres undefined)
inhibition of growth at 100 ppm [1]: 92% | inhibition of growth at 10 ppm [2]: 63% | inhibition of growth at 10 ppm [3]: 66% | inhibition of growth at 100 ppm [4]: 87%

CCCc1ccc2c(c1)COP(=S)(NC(C)C)O2 (centres undefined)
inhibition of growth at 100 ppm [1]: 81% | inhibition of growth at 10 ppm [2]: 57% | inhibition of growth at 10 ppm [3]: 59% | inhibition of growth at 100 ppm [4]: 80%

CCCCNP1(=S)OCc2cc(CCC)ccc2O1 (centres undefined)
inhibition of growth at 100 ppm [1]: 76% | inhibition of growth at 10 ppm [2]: 66% | inhibition of growth at 10 ppm [3]: 54% | inhibition of growth at 100 ppm [4]: 65%

CCCc1ccc2c(c1)COP(=S)(NCC(C)C)O2 (centres undefined)
inhibition of growth at 100 ppm [1]: 79% | inhibition of growth at 10 ppm [2]: 59% | inhibition of growth at 10 ppm [3]: 44% | inhibition of growth at 100 ppm [4]: 57%

CCCc1ccc2c(c1)COP(=S)(NC(C)CC)O2 (centres undefined)
inhibition of growth at 100 ppm [1]: 64% | inhibition of growth at 10 ppm [2]: 44% | inhibition of growth at 10 ppm [3]: 44% | inhibition of growth at 100 ppm [4]: 59%

CCCNP1(=S)OCc2cc(C(C)C)ccc2O1 (centres undefined)
inhibition of growth at 100 ppm [1]: 90% | inhibition of growth at 10 ppm [2]: 58% | inhibition of growth at 10 ppm [3]: 57% | inhibition of growth at 100 ppm [4]: 75%

CC(C)NP1(=S)OCc2cc(C(C)C)ccc2O1 (centres undefined)
inhibition of growth at 100 ppm [1]: 90% | inhibition of growth at 10 ppm [2]: 58% | inhibition of growth at 10 ppm [3]: 53% | inhibition of growth at 100 ppm [4]: 82%

CCCCNP1(=S)OCc2cc(C(C)C)ccc2O1 (centres undefined)
inhibition of growth at 100 ppm [1]: 70% | inhibition of growth at 10 ppm [2]: 56% | inhibition of growth at 10 ppm [3]: 29% | inhibition of growth at 100 ppm [4]: 49%

CC(C)CNP1(=S)OCc2cc(C(C)C)ccc2O1 (centres undefined)
inhibition of growth at 100 ppm [1]: 76% | inhibition of growth at 10 ppm [2]: 49% | inhibition of growth at 10 ppm [3]: 14% | inhibition of growth at 100 ppm [4]: 18%

CCC(C)NP1(=S)OCc2cc(C(C)C)ccc2O1 (centres undefined)
inhibition of growth at 100 ppm [1]: 68% | inhibition of growth at 10 ppm [2]: 34% | inhibition of growth at 10 ppm [3]: 11% | inhibition of growth at 100 ppm [4]: 43%

CCCCc1ccc2c(c1)COP(=S)(NCCC)O2 (centres undefined)
inhibition of growth at 100 ppm [1]: 71% | inhibition of growth at 10 ppm [2]: 55% | inhibition of growth at 10 ppm [3]: 54% | inhibition of growth at 100 ppm [4]: 72%

CCCCc1ccc2c(c1)COP(=S)(NC(C)C)O2 (centres undefined)
inhibition of growth at 100 ppm [1]: 59% | inhibition of growth at 10 ppm [2]: 42% | inhibition of growth at 10 ppm [3]: 54% | inhibition of growth at 100 ppm [4]: 57%

CC(C)OP(=O)(OC(C)C)SCc1ccccc1 [IPROBENFOS]
inhibition of growth at 100 ppm [1]: 100% | inhibition of growth at 10 ppm [2]: 69% | inhibition of growth at 10 ppm [3]: 42% | inhibition of growth at 100 ppm [4]: 89%
